Values quoted from earlier work as cited in patent US10246411B2, “(Z)-3,4,5-trimethoxystyrylbenzenesulfonamides as potential anticancer agents” (COUNCIL OF SCIENTIFIC & INDUSTRIAL RESEARCH, priority 2014, dated 2019).

Tests used:
tubulin = conditions: background, literature; cited from earlier work
[1] = test system: VCR-resistant P388 cell lines; conditions: two kinds of VCR-resistant P388 cell lines; background, literature; cited from earlier work

| Structure (SMILES) | inhibition of tubulin polymerization (tubulin) | activity against VCR-resistant P388 cell lines [1] |
| --- | --- | --- |
| COc1cc(/C=C\c2ccc(OC)c(N)c2)cc(OC)c1 [(Z)-5-(3,5-dimethoxystyryl)-2-methoxyaniline] | five times stronger than CA-4 |  |
| COc1ccc(S(=O)(=O)Nc2cccnc2Nc2ccc(O)cc2)cc1 [E7010, N-[2-[(4-hydroxyphenyl)amino]-3-pyridinyl]-4-methoxybenzenesulfonamide] | dose-dependent inhibition of tubulin polymerization | active |
| COc1ccc(/C=C\c2cc(OC)c(OC)c(OC)c2)cc1O [CA-4, Combretastatin A-4] | potent inhibitor of tubulin polymerization |  |
